Patent US20210106579A1, “AMELIORATION OF COGNITIVE AND MOTOR DEFICITS ASSOCIATED WITH ALZHEIMER'S” (Neuralstem, Inc., priority 2018, published 2021)

Legend:
5XFAD mice [1] = experiment: Barnes maze test (learning and memory retention) in Alzheimer's mouse model; type: in vivo; conditions: 30 mg/kg/day oral; for Memory retention (Barnes maze, retest after two days): 5XFAD mice
Description: (§1) A mouse model of Alzheimer's disease obtained from Jackson Laboratory was used in this study. […] Wild type control B6SJLF1/J mice were used. 5XFAD mice developed cognitive impairments at 4-5 months of age. Four groups of mice were employed, 15 mice per group, a wild type control administered vehicle; a wild type control administered NSI-189 as the phosphate salt administered orally at a level of 30 mg/kg per day and 5XFAD mice administered vehicle or administered NSI-189 as the phosphate salt orally also at 30 mg/kg/day (of the organic moiety). NSI-189 is of Formula 2 wherein R^1 is isoamyl. The treatment began at 15 weeks and was maintained for 12 weeks with measurements made after 6 weeks and 12 weeks.
The Barnes maze test is described in King, M. R., et al., J. Neurosc. Res. (supra). The Barnes maze consists of a brightly lit, circular, white platform with 20 holes with equidistant spacing around the periphery. An escape box is placed beneath one of the holes marked by a visual clue. Before testing begins, the mouse is placed in the center of the platform and allowed to explore until either it finds the escape box or five minutes has elapsed. The time to locate the escape box is then recorded at the end of the session, the mouse is left in, or placed in, the escape box for an additional minute.
This system is used to test both learning and memory. To test learning, the mouse was placed in the maze for five consecutive days to ascertain whether the time required to find the escape box was decreased, which would indicate learning. To test memory retention, a subsequent period of two days was allowed to elapse and the mouse was retested to ascertain whether a decreased time in finding the escape box was found.

5XFAD mice [2] = experiment: Object recognition test (short term memory) in Alzheimer's mouse model; type: in vivo; conditions: 30 mg/kg/day oral, 6 weeks of treatment, FIG. 5
Description: as §1
The object recognition test is also described in King, M. R., et al. (supra). This is based on a concept that the mice will explore a novel object for a longer time than a familiar object. Two identical objects are placed equal distance from each other and from the side of a transparent box and mice are given 10 minutes to achieve 30 seconds of exploration of the two objects after which they are placed back in their home cage. […] The time that the mouse spends exploring the familiar and novel object is recorded and mice with normal cognitive function typically spend more time with a novel object.

5XFAD mice [3] = experiment: Learning Rota-Rod test (motor skills and learning) in Alzheimer's mouse model; type: in vivo; conditions: 30 mg/kg/day oral
Description: as §1
The Rota-Rod test also is described in King, et al. (supra). Rota-Rod is marketed by Stoelting Company, Wood Dale, Ill. This is a rod that rotates accelerating from 4-40 rpm over five minutes and the amount of time spent on the rod before loss of balance is recorded over three trials. This measures both motor skills, and if conducted over a period of days, it measures learning.

5XFAD mice [4] = experiment: Anxiety: time spent on the edge of an inverted beaker; type: in vivo, mouse; conditions: FIG. 8
Description: as §1
The time spent on the edge of an inverted beaker is used to assess anxiety, and the lower the time the more the anxious the mouse.

CC(C)CCNc1ncccc1C(=O)N1CCN(Cc2ccccc2)CC1 [NSI-189]
Learning (Barnes maze) (5XFAD mice [1]; 5XFAD mice (7 month old), 12 weeks of treatment, FIG. 3): amelioration of worsened learning deficit
Memory retention (Barnes maze, retest after two days) (5XFAD mice [1]; 6 weeks of treatment, FIG. 2): improved memory
Memory retention (Barnes maze, retest after two days) (5XFAD mice [1]; 12 weeks of treatment, FIG. 4): improvement of memory retention
Learning (Barnes maze, time to find escape box over five consecutive days) (5XFAD mice [1]; control and 5XFAD mice, 6 weeks of treatment, FIG. 1): appeared not to affect the learning curve of either group
Recognition index (object recognition test) (5XFAD mice [2]): improved the recognition index of 5XFAD mice
Motor skill at the beginning and learning (time on Rota-Rod) (5XFAD mice [3]; 5XFAD mice, 6 weeks of treatment, FIG. 7): improves both the motor skill exhibited at the beginning and learning even over control
Behavior of control mice (5XFAD mice [3]; wild type control mice, statement covers the behavioural tests): In no case did NSI-189 affect the behavior of control mice
Anxiety (time spent on the edge of an inverted beaker) (5XFAD mice [4]; control and 5XFAD mice at 7 months (12 weeks of treatment)): partially reduced the anxiety in both
Anxiety (time spent on the edge of an inverted beaker) (5XFAD mice [4]; control and 5XFAD mice at five months (6 weeks of treatment)): did not affect either group
